The record followed here is PubChem BioAssay (NCI).

“And” between values parts separate entries of the source, which are not always exact repeats. Equal values may be shown once.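 In this assay, cells in 96-well plates receive the compound at five concentrations for 48 hours. Endpoints are linearly interpolated between the surrounding concentrations. Abbreviation: GI50, concentration required for 50% inhibition of growth. TGI denotes the concentration required for complete inhibition of growth.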 Where only a bound is given, the exact number is not on record here.

Among the test systems are NCI-H460 lung; EKVX NSCLC; NCI-H226 lung; CAKI-1 renal; K-562 leukemia; OVCAR-4 ovarian; M14 melanoma; HOP-62 NSCLC; CCRF-CEM leukemia; COLO 205 colon.
Common to all, as to assay: growth of human tumour cells (NCI), 48 h

On to `O=c1oc2ccc(Cl)cc2c(=O)n1-c1ccc(I)cc1F`, for which the GI50 in the experiment with NCI-H460 lung is 0.199 µM; in the experiment with EKVX NSCLC, 0.444 µM; in the experiment on NCI-H226 lung it was 0.566 µM; in the experiment on CAKI-1 renal, 0.172 µM; with K-562 leukemia, 0.176 µM; in the experiment on OVCAR-4 ovarian, 0.225 µM. Also, the GI50 with M14 melanoma is 0.165 µM; with HOP-62 NSCLC, 0.855 µM; with CCRF-CEM leukemia it was 0.702 µM; in the experiment with COLO 205 colon it was 7 µM. Further, the TGI in the experiment on NCI-H460 lung was above 23.8 µM; in the experiment on EKVX NSCLC it was 4.98 µM; with NCI-H226 lung, 2.92 µM; with CAKI-1 renal, 1.02 µM; with K-562 leukemia, above 100 µM; in the experiment on OVCAR-4 ovarian, above 87.2 µM. Besides, the TGI with M14 melanoma worked out at 1.4 µM; with HOP-62 NSCLC, 3.75 µM; in the experiment on CCRF-CEM leukemia, 5.14 µM; with COLO 205 colon, 19.7 µM.

Turning to `Clc1ccc2nc(Oc3ccccc3)cnc2c1`, the GI50 in the experiment on NCI-H460 lung, in the experiment on EKVX NSCLC, in the experiment with NCI-H226 lung, in the experiment with CAKI-1 renal, in the experiment with K-562 leukemia and in the experiment with OVCAR-4 ovarian was above 100 µM each time. For the same compound, the GI50 in the experiment on M14 melanoma, in the experiment with HOP-62 NSCLC, with CCRF-CEM leukemia and in the experiment with COLO 205 colon was above 100 µM in each case. The TGI in the experiment on NCI-H460 lung, with EKVX NSCLC, with NCI-H226 lung, in the experiment on CAKI-1 renal, with K-562 leukemia and in the experiment with OVCAR-4 ovarian was above 100 µM each time. Moreover, the TGI with M14 melanoma, with HOP-62 NSCLC, with CCRF-CEM leukemia and with COLO 205 colon was above 100 µM throughout.

Regarding `CN(C)c1ccc(N=Nc2c([O-])ccc3ccccc23)cc1.[C-]#[O+].[C-]#[O+].[Ir]`, the GI50 is above 100 µM with NCI-H460 lung; 20.6 µM with EKVX NSCLC; above 53.9 µM in the experiment with NCI-H226 lung; 16.2 µM with CAKI-1 renal; 29.4 µM in the experiment with K-562 leukemia; 25.4 µM in the experiment on OVCAR-4 ovarian. Besides, the GI50 in the experiment with M14 melanoma is 21.9 µM; in the experiment with HOP-62 NSCLC, above 100 µM; in the experiment with CCRF-CEM leukemia, 8.08 µM; with COLO 205 colon it was 16.5 µM. For the same compound, the TGI with NCI-H460 lung was above 100 µM; with EKVX NSCLC it was 64.1 µM; with NCI-H226 lung, above 100 µM; in the experiment on CAKI-1 renal, 33.5 µM; in the experiment with K-562 leukemia it was above 100 µM; in the experiment on OVCAR-4 ovarian, 47.8 µM. Moreover, the TGI is 46.6 µM in the experiment with M14 melanoma, above 100 µM with HOP-62 NSCLC, 39.9 µM in the experiment on CCRF-CEM leukemia and 31.6 µM in the experiment with COLO 205 colon.

With `Nc1nc(OCc2ccccc2)nc2[nH]ncc12`, the GI50 was 24 µM in the experiment on NCI-H460 lung; 38.6 µM with EKVX NSCLC; 14.8 µM with NCI-H226 lung; 11.1 µM in the experiment on CAKI-1 renal; 19.7 µM in the experiment on K-562 leukemia; 17.5 µM in the experiment on OVCAR-4 ovarian. Also, the values for the GI50 in the experiment on M14 melanoma, in the experiment with HOP-62 NSCLC and in the experiment with COLO 205 colon were 36.6 µM, 19.3 µM and 18.5 µM, respectively. Further, the TGI is 88.8 µM in the experiment with NCI-H460 lung; above 100 µM with EKVX NSCLC; 32.6 µM in the experiment on NCI-H226 lung; 33.2 µM in the experiment on CAKI-1 renal; above 100 µM in the experiment on K-562 leukemia; 63.4 µM with OVCAR-4 ovarian. In addition, the TGI with M14 melanoma was above 100 µM; in the experiment on HOP-62 NSCLC, 37.8 µM; in the experiment with COLO 205 colon, 40.4 µM.

Consider `CCc1c2c(nc3cccc(N)c13)-c1cc3c(c(=O)n1C2)COC(=O)[C@]3(O)CC`, for which the GI50 is 0.002 µM with NCI-H460 lung; 0.187 µM in the experiment with EKVX NSCLC; 0.00208 µM in the experiment on NCI-H226 lung; 0.00244 µM in the experiment on K-562 leukemia; 0.104 µM and 0.0238 µM in the experiment with OVCAR-4 ovarian; 0.00202 µM with M14 melanoma. Besides, the GI50 is 0.00143 µM with HOP-62 NSCLC, below 0.001 µM with CCRF-CEM leukemia and 0.328 µM in the experiment on COLO 205 colon. For the same compound, the TGI with EKVX NSCLC is above 100 µM; with NCI-H226 lung it was 0.157 µM; in the experiment on CAKI-1 renal it was 0.0349 µM; in the experiment with K-562 leukemia, above 100 µM; in the experiment on OVCAR-4 ovarian, above 100 µM; in the experiment on M14 melanoma, 2.97 µM. For the same compound, the TGI in the experiment on HOP-62 NSCLC came to 4.29 µM.

Consider `C[C@H](CSC(=O)c1ccccc1)C(=O)N1c2ccccc2C[C@H]1C(=O)O`, for which the TGI with NCI-H460 lung was above 10 µM; in the experiment on EKVX NSCLC it was above 100 µM; with NCI-H226 lung it was above 100 µM; in the experiment with CAKI-1 renal it was above 100 µM; in the experiment on K-562 leukemia, above 100 µM; in the experiment with OVCAR-4 ovarian, above 100 µM. For the same compound, the TGI in the experiment on HOP-62 NSCLC, with CCRF-CEM leukemia and with COLO 205 colon was above 100 µM each time.

As to `CC(=O)OC1C2(CC3N4C(=O)C5(CO)SSC4(CC31O)C(=O)N5C)OC(C)C(C)(C)C2=O` (stereo not drawn), the GI50 in the experiment on NCI-H460 lung is below 0.0485 µM; with EKVX NSCLC, 0.124 µM; in the experiment with NCI-H226 lung, 0.0142 µM; in the experiment with CAKI-1 renal, 1.88 µM; in the experiment on K-562 leukemia, below 0.0288 µM; in the experiment with OVCAR-4 ovarian, below 0.0114 µM. The GI50 in the experiment with M14 melanoma is 0.253 µM; in the experiment with HOP-62 NSCLC, 0.575 µM. Besides, the TGI was 0.217 µM with NCI-H460 lung; 0.709 µM in the experiment with EKVX NSCLC; 0.0553 µM in the experiment with NCI-H226 lung; 3.86 µM in the experiment on CAKI-1 renal; 1.91 µM in the experiment with K-562 leukemia; 0.0345 µM in the experiment with OVCAR-4 ovarian. For the same compound, the values for the TGI in the experiment with M14 melanoma, in the experiment on HOP-62 NSCLC and with CCRF-CEM leukemia were 0.722 µM, 1.08 µM and 0.175 µM, respectively.

Regarding `S=c1ssc(Sc2ccccn2)c1Cl`, the GI50 is 15.2 µM in the experiment on NCI-H460 lung; 12.5 µM in the experiment on EKVX NSCLC; 23 µM in the experiment with NCI-H226 lung; 17.6 µM in the experiment with CAKI-1 renal; 3.63 µM with K-562 leukemia; 5.2 µM in the experiment on OVCAR-4 ovarian. Also, the GI50 is 14 µM in the experiment on M14 melanoma, 17.5 µM in the experiment on HOP-62 NSCLC and 19.2 µM with COLO 205 colon. Also, the TGI with NCI-H460 lung is 28.5 µM; in the experiment with EKVX NSCLC, 30.3 µM; in the experiment on NCI-H226 lung, 58.8 µM; with CAKI-1 renal, 31.4 µM; in the experiment on K-562 leukemia, 14.5 µM; with OVCAR-4 ovarian, above 100 µM. For the same compound, the TGI turned out to be 27 µM in the experiment on M14 melanoma, 31.3 µM with HOP-62 NSCLC and 38.7 µM with COLO 205 colon.
